Test results from patent US20110039763A1, “TARGETED ANTIMICROBIAL MOIETIES” (C3 JIAN, INC., priority 2009, published 2011).
“Also recorded” adds a separate entry of the source.

The substances below were run on microorganisms (assay: Targeting peptide binding to target microorganisms (Tables 3, 10, 12)). Details: microorganism(s) the targeting peptide binds; binding in aqueous buffers that varied with peptide solubility, preferably 1x PBS.
In the case of “1T-261 (SFEKNKIENNLKIAQAYIYIKPKPRICQA; Peptide with targeting and/or antimicrobial activity)”, the “Target(s)” value was “F. nucleatum; also recorded: S. mutans; also recorded: S. oralis; also recorded: S. sanguinis”.
With “1T-188 (HRKDVYKK; Peptide with targeting and/or antimicrobial activity)” the “Target(s)” value was “S. sanguinis”.
For “1T-259 (EKLKKILLKLAVCGKAWYTL; Peptide with targeting and/or antimicrobial activity)”, the “Target(s)” value was “F. nucleatum; also recorded: P. gingivalis; also recorded: T. denticola; also recorded: S. mitis; also recorded: S. mutans; also recorded: S. oralis; also recorded: S. sanguinis”.
For “1T-239 (ADDLLNKRLTDLIMENAETVKTIDLDNSD; Peptide with targeting and/or antimicrobial activity)”, the “Target(s)” value was “A. naeslundii; also recorded: S. gordonii; also recorded: S. mitis; also recorded: S. mutans; also recorded: S. oralis; also recorded: S. sanguinis”.
For “PF-054 (VSISRFIGGGHVFNGNNKRNL; Peptide with targeting and/or antimicrobial activity)”, the “Target(s)” value was “S. epidermidis; also recorded: E. coli”.
“1T-258 (TINIDDKVLDYLKKINSKAITIDLIGCAS; Peptide with targeting and/or antimicrobial activity)” was tested, and the “Target(s)” value was “A. naeslundii; also recorded: F. nucleatum; also recorded: P. gingivalis; also recorded: T. denticola; also recorded: S. mitis; also recorded: S. mutans; also recorded: S. oralis”.
With “1T-207 (SPLEKYGTGSMTALTFLLGCCLLVLSKKSR; Peptide with targeting and/or antimicrobial activity)” the “Target(s)” value was “F. nucleatum; also recorded: S. sanguinis”.
With “1T-260 (NILYFIHDENQWEPQKAEIFRGSIKHCAWLSS; Peptide with targeting and/or antimicrobial activity)” the “Target(s)” value was “A. naeslundii; also recorded: P. gingivalis; also recorded: S. epidermidis; also recorded: S. gordonii; also recorded: S. mitis; also recorded: S. mutans; also recorded: S. oralis; also recorded: S. sanguinis”.

Same assay, conditions: microorganism(s) the targeting peptide binds; binding in aqueous buffers varied with peptide solubility, preferably 1x PBS
In the case of “PF-367 (TKTPGTFTPGTGIQKTAVPL; Peptide with targeting and/or antimicrobial activity)”, the “Target(s)” value was “B. subtilis”.
“PF-481 (DELYEIMDKVIEEFNKDIEQNNNNGNNEDLTENKIN; Peptide with targeting and/or antimicrobial activity)” was tested, and the “Target(s)” value was “C. jeikeium”.
“PF-351 (YLFFKGKKVAEEEATKDEVKR; Peptide with targeting and/or antimicrobial activity)” was tested, and the “Target(s)” value was “S. mutans”.
For “PF-195 (EMAEGSADDRLRKTPRDC; Peptide with targeting and/or antimicrobial activity)”, the “Target(s)” value was “S. epidermidis; also recorded: M. luteus; also recorded: E. faecalis; also recorded: C. jeikeium”.
For “PF-732 (DRPSQTTHHTLSSSRITGPS; Peptide with targeting and/or antimicrobial activity)”, the “Target(s)” value was “E. coli”.
In the case of “PF-768 (GFRGGKRGGARG; Peptide with targeting and/or antimicrobial activity)”, the “Target(s)” value was “S. epidermidis; also recorded: S. pneumoniae; also recorded: E. faecalis; also recorded: C. jeikeium”.
In the case of “PF-130 (LQRSDEESMPRRHEKYS; Peptide with targeting and/or antimicrobial activity)”, the “Target(s)” value was “E. faecalis; also recorded: C. jeikeium; also recorded: C. jejuni”.
In the case of “PF-508 (VSTFGKVVKVVDEK; Peptide with targeting and/or antimicrobial activity)”, the “Target(s)” value was “S. mutans”.
For “PF-735 (YDPLFPNDKN; Peptide with targeting and/or antimicrobial activity)”, the “Target(s)” value was “S. mutans; also recorded: E. coli”.
In the case of “PF-323 (ARESIEKSHVPVDATIVGVVDSFEVFDE; Peptide with targeting and/or antimicrobial activity)”, the “Target(s)” value was “S. mutans”.
For “PF-788 (GLITVFAGTARILQLRRAAKKTHAAALR; Peptide with targeting and/or antimicrobial activity)”, the “Target(s)” value was “Mycobacteria spp”.
For “PF-304 (LVKDTSDIKNDLNNIEIVTSKNSNDIAKLKSVK; Peptide with targeting and/or antimicrobial activity)”, the “Target(s)” value was “S. mutans”.
For “PF-288 (IYQLLNIEYSEDD; Peptide with targeting and/or antimicrobial activity)”, the “Target(s)” value was “S. mutans; also recorded: E. coli”.
With “PF-494 (FTEPLRPLQAKGQIISIKPSTSSS; Peptide with targeting and/or antimicrobial activity)” the “Target(s)” value was “S. mutans”.
“PF-230 (EDKPTNTIQEIKPVKWQ; Peptide with targeting and/or antimicrobial activity)” was tested, and the “Target(s)” value was “S. mutans”.
With “PF-311 (IDAVTKKKTTCMIRAPTKIPIAHTDN; Peptide with targeting and/or antimicrobial activity)” the “Target(s)” value was “C. difficile”.
With “PF-S023 (MAEDERRALKRRTNRGRTRTRKRITV; Peptide with targeting and/or antimicrobial activity)” the “Target(s)” value was “S. epidermidis and MRSA”.
For “PF-152 (VGYFIWKDSHSRKG; Peptide with targeting and/or antimicrobial activity)”, the “Target(s)” value was “S. epidermidis and C. albicans and MRSA and E. faecalis and C. jeikeium”.
With “PF-790 (PAGPDHLDQRDHR; Peptide with targeting and/or antimicrobial activity)” the “Target(s)” value was “Mycobacteria spp”.
With “PF-493 (PGAFFFCRGRGCWCGIGW; Peptide with targeting and/or antimicrobial activity)” the “Target(s)” value was “S. mutans; also recorded: B. subtilis; also recorded: E. coli”.
For “PF-184 (LIADRHIRA; Peptide with targeting and/or antimicrobial activity)”, the “Target(s)” value was “S. epidermidis and M. luteus and E. coli and P. aeruginosa and C. albicans and MRSA and C. jeikeium”.
For “PF-C259 (AEIQPHCLSVL; Peptide with targeting and/or antimicrobial activity)”, the “Target(s)” value was “F. nucleatum; also recorded: S. mutans”.
With “PF-174 (RGGDSPARRRPGLAGPGGPG; Peptide with targeting and/or antimicrobial activity)” the “Target(s)” value was “S. epidermidis; also recorded: P. aeruginosa; also recorded: C. jeikeium”.
“PF-210 (EREDGCDAMPLP; Peptide with targeting and/or antimicrobial activity)” was tested, and the “Target(s)” value was “S. epidermidis and P. aeruginosa and C. albicans and MRSA and E. faecalis and C. jeikeium and C. jejuni”.
In the case of “MKKLVAALAVIVILTGCVYDPVNYDKIHDQEFQDHLRQNG [PF-252]”, the “Target(s)” value was “S. mutans”.
With PEIIKIVSGLL [PF-758] the “Target(s)” value was “S. epidermidis and M. luteus and E. coli and MRSA and S. pneumoniae and E. faecalis and C. jeikeium”.
With “PF-648 (ARRYPAAGS; Peptide with targeting and/or antimicrobial activity)” the “Target(s)” value was “S. mutans; also recorded: E. coli”.
In the case of “PF-361 (NQVTEGIRLLVE; Peptide with targeting and/or antimicrobial activity)”, the “Target(s)” value was “S. epidermidis; also recorded: E. coli; also recorded: E. faecalis; also recorded: C. jejuni”.
In the case of “PF-131 (RRAAARTKGNRR; Peptide with targeting and/or antimicrobial activity)”, the “Target(s)” value was “S. epidermidis and E. coli and MRSA and C. jeikeium”.

Same assay, conditions: peptide binding in aqueous buffers that varied with peptide solubility; preferably 1x PBS
With “1T-8 (FSVAACGEQRAVTFVLLIEDLI; Peptide with targeting and/or antimicrobial activity)” the “Target(s) (microorganism bound by the targeting peptide)” value was “M. xanthus”.
In the case of “1T-55 (NHKTLKEWKAKWGPEAVESWATLLG; Peptide with targeting and/or antimicrobial activity)”, the “Target(s) (microorganism bound by the targeting peptide)” value was “C. xerosis; also recorded: P. aeruginosa”.
In the case of “1T-106 (DALRRSRSQGRRHR; Peptide with targeting and/or antimicrobial activity)”, the “Target(s) (microorganism bound by the targeting peptide)” value was “S. gordonii; also recorded: S. mitis; also recorded: S. mutans; also recorded: S. oralis; also recorded: S. salivarious”.
“1T-124 (LFDERNKIA; Peptide with targeting and/or antimicrobial activity)” was tested, and the “Target(s) (microorganism bound by the targeting peptide)” value was “S. mitis; also recorded: S. mutans; also recorded: S. oralis”.
With “1T-92 (GQDEGQRRAGVGEGQGVDG; Peptide with targeting and/or antimicrobial activity)” the “Target(s) (microorganism bound by the targeting peptide)” value was “S. mitis; also recorded: S. mutans”.
For “1T-74 (DIDWGRKISCAAGVAYGAIDGCATTV; Peptide with targeting and/or antimicrobial activity)”, the “Target(s) (microorganism bound by the targeting peptide)” value was “S. pneumoniae”.
With “1T-14 (ALAGLAGLISGK; Peptide with targeting and/or antimicrobial activity)” the “Target(s) (microorganism bound by the targeting peptide)” value was “S. mutans; also recorded: S. aureus; also recorded: S. epidermidis; also recorded: C. xerosis”.
“1T-60 (YLTSLGLDAAEQAQGLLTILKG; Peptide with targeting and/or antimicrobial activity)” was tested, and the “Target(s) (microorganism bound by the targeting peptide)” value was “S. aureus; also recorded: S. epidermidis; also recorded: C. jeikeium; also recorded: C. striatum; also recorded: P. aeruginosa”.
In the case of “1T-19 (PGAFRNPQMPRG; Peptide with targeting and/or antimicrobial activity)”, the “Target(s) (microorganism bound by the targeting peptide)” value was “S. aureus; also recorded: S. epidermidis; also recorded: P. aeruginosa”.
In the case of “1T-43 (DRCLSVLSWSPPKVSPLI; Peptide with targeting and/or antimicrobial activity)”, the “Target(s) (microorganism bound by the targeting peptide)” value was “C. jeikium; also recorded: P. aeruginosa”.
For “1T-3 (VLGIAGGLDAYGELVGGN; Peptide with targeting and/or antimicrobial activity)”, the “Target(s) (microorganism bound by the targeting peptide)” value was “S. mutans; also recorded: S. gordonii”.
For “1T-99 (MKAWLGQ; Peptide with targeting and/or antimicrobial activity)”, the “Target(s) (microorganism bound by the targeting peptide)” value was “S. gordonii; also recorded: S. mitis; also recorded: S. mutans; also recorded: S. oralis; also recorded: S. sanguinis”.
In the case of “1T-83 (QKPRKNETFIGYIQRYDIDGNGYQSLPCPQN; Peptide with targeting and/or antimicrobial activity)”, the “Target(s) (microorganism bound by the targeting peptide)” value was “S. pneumoniae”.
